Measurements reported in PMC10672842, “Anti-Trypanosoma cruzi Activity, Mutagenicity, Hepatocytotoxicity and Nitroreductase Enzyme Evaluation of 3-Nitrotriazole, 2-Nitroimidazole and Triazole Derivatives” (Molecules, 2023).
Like-named read-outs stand apart in the source and are kept apart here.

Tests used:
[1] = In vitro cytotoxicity of L929 cells (AlamarBlue); format: cell-based, mice; details: mouse, four days
Experimental: For this bioassay, 4000 mammalian cells in 200 µL of RPMI-1640 medium (pH 7.2–7.4) (Gibco BRL) plus 10% fetal bovine serum and 2 mM glutamine were added to each well of a 96-well microtiter plate, which was incubated for three days at 37 °C. […] After this period, 20 µL of AlamarBlue^TM was added to each well, and the plate was incubated for another 4–6 h. Then, the absorbance was measured at 570 nm. Controls with cells not treated and treated with benznidazole were performed in parallel, and triplicates were performed on the same plate. The results are expressed as the percent difference in the reduction between treated (CT) and untreated cells (UT) using the following equation:(1) 117.216Abs570 TC−80.586(Abs600 TC)/117.216Abs570 UT−80.586(Abs600 UT) × 100

[2] = test system: T. cruzi nitroreductase enzyme (TcNTR); experiment: Kinetic assay with Trypanosoma cruzi nitroreductase enzyme (NADH oxidation); format: biochemical; details: for Kobs Deriv./Kobs BZN 25 µM: 25 µM derivative; for Kobs Deriv./Kobs BZN 25 µM / Kobs Deriv./Kobs BZN 50 µM: ratio of mean Kobs to BZN; for Kobs Deriv./Kobs BZN 50 µM: 50 µM derivative
Experimental: To determine a potential mechanism of action, nitroazole derivatives 5, 6, 8 and 9 were evaluated as substrates of the T. cruzi nitroreductase enzyme (TcNTR) and compared to BZN, the reference prodrug (Table 2). The enzymatic activity was measured by monitoring the oxidation of NADH, the first substrate of the enzyme, via spectrophotometric assays. […] At a concentration of 25 µM, derivatives 5 and 8 were metabolized at rates 2.3 and 2.6 times higher than that of BZN, respectively. At 50 µM, the compounds presented metabolism rates 1.6 and 3.0 times higher than that of BZN, respectively.
The protocols for expressing, purifying and conducting kinetic analysis with the recombinant TcNTR enzyme were adapted from the methods originally developed by Shane Wilkinson, with certain modifications.
For the kinetics assays, it was prepared a 200 μL solution which included 50 mM Tris-Base at pH 7.5, with a constant concentration of both NADH (50 μM) and the substances 5, 6, 8, 9 or BZN. Specifically, two distinct fixed concentrations (25 and 50 μM) of the substances 5, 6, 8, 9 or BZN were tested. These prepared mixtures were then incubated for 5 min at room temperature. Subsequently, the reaction was initiated by adding NTR to achieve a final concentration of 10 μg/mL. The reaction rates were monitored using a Hitachi U-2900 spectrophotometer, measuring the consumption of the primary substrate, NADH (λ = 340 nm; ε = 6.220 M^−1 cm^−1), over a 2-min interval. The resulting data curves were analyzed through linear regression using OriginPro 2016 software. To evaluate the reaction rate (Kobs) obtained from the 25 and 50 μM concentrations of each substrate, comparisons were made with the reference values for BZN. Measurement errors were calculated using the formula: Error = Z × σ/√n, where ‘Z’ denotes the critical value, ‘σ’ represents the standard deviation and ‘n’ is the number of test measurements, which were performed at least in triplicate.

[3] = in vitro; format: cell-based; details: human
Experimental: (§1) The Lactate Desidrogenase (LDH) Cytotoxicity Detection Kit^PLUS and the Cell Proliferation Reagent WST-1 assays were performed according to the manufacturer’s protocols. The human hepatocellular carcinoma cell line HepG2 was cultured in T25/175 cm^2 flasks with Dulbecco’s modified Eagle’s medium (DMEM, Gibco BRL) supplemented with 10% fetal bovine serum, 3.7 g/L sodium bicarbonate and 100 µg/mL penicillin–streptomycin under standard conditions (37 ± 1 °C, 95% relative humidity and 5% CO2). Cells were split using trypsin-EDTA (0.05%) with phenol red solution (Gibco BRL) and seeded in a 96-well flat-bottomed plate at a density of 1 × 10^4 cells/well. After overnight incubation, the cells were washed with 1X PBS, and the medium was replaced with different compound dilutions (0–5000 µM) in fresh medium (100 µL) followed by 24 h of incubation. DMSO 1% was used as the negative control, and Triton X-100 4% was used as the positive control. For the LDH assay, after treatment, 50 µL of supernatant from each well was transferred to a 96-well flat-bottomed plate, and 50 µL of freshly prepared reaction mixture was added to each well. After 10 min of incubation in the dark at room temperature, 25 µL of stop solution was added to each well, and the absorbance was measured at 492 nm on a microplate reader (Polaris, Celer, MG, Brazil). For the WST-1 assay, after exposure, the supernatant was replaced by 100 µL of WST-1 2% in fresh medium and incubated for 3 h in the dark under standard conditions. The absorbance was measured at 440 nm. […] For cytotoxicity assays, significant differences between the groups were analyzed by one-way ANOVA and Tukey’s post hoc tests (p < 0.01).

[4] = in vitro; format: cell-based; details: human; remark: listed apart in the source
Experimental: as §1

[5] = test system: S. typhimurium TA1535; details: for Mutagenicity in the Ames test (verdict): TA1535, absence or presence of metabolic activation

| SMILES | CC50 at 4 days [1] | CC50 at 24 h [3] | CC50 at 48 h [3] | CC50 at 24 h [4] | CC50 at 48 h [4] | IF (induction factor) ([5]; TA1535, +S9, 0.5 µM) | revertant His+ colonies, mean ± SD ([5]; TA1535, +S9, 0.5 µM) | IF (induction factor) ([5]; TA1535, +S9, 5 µM) | revertant His+ colonies, mean ± SD ([5]; TA1535, +S9, 5 µM) | IF (induction factor) ([5]; TA1535, +S9, 50 µM) | revertant His+ colonies, mean ± SD ([5]; TA1535, +S9, 50 µM) | revertant His+ colonies, mean ± SD ([5]; TA1535, +S9, 500 µM) | Mutagenicity in the Ames test (verdict) [5] | IF (induction factor) ([5]; TA1535, −S9, 0.5 µM) | revertant His+ colonies, mean ± SD ([5]; TA1535, −S9, 0.5 µM) | IF (induction factor) ([5]; TA1535, −S9, 5 µM) | revertant His+ colonies, mean ± SD ([5]; TA1535, −S9, 5 µM) | IF (induction factor) ([5]; TA1535, −S9, 50 µM) | revertant His+ colonies, mean ± SD ([5]; TA1535, −S9, 50 µM) | revertant His+ colonies, mean ± SD ([5]; TA1535, −S9, 500 µM) | further results |
| --- | --- | --- | --- | --- | --- | --- | --- | --- | --- | --- | --- | --- | --- | --- | --- | --- | --- | --- | --- | --- | --- |
| O=C(Cn1ccnc1[N+](=O)[O-])NCc1ccccc1 [BZN, benznidazole, reference compound] | 2110 ± 270 µM | > 500 µM | > 500 µM | > 500 µM | > 500 µM | 1.3 | 13 ± 1 | 1.6 | 17 ± 3 | 2.1 | 22 ± 3 | 31 ± 2 | mutagenic | 1.5 | 11 ± 2 | 1.5 | 11 ± 5 | 1.5 | 11 ± 1 | 18 ± 4 | Kobs ([2]; 25 µM Derivative + 50 µM NADH): 0.36 µmol of oxidized NADH/min/mg TcNTR; Kobs ([2]; 50 µM Derivative + 50 µM NADH): 0.36 µmol of oxidized NADH/min/mg TcNTR; CC50 at 72 h [3]: > 500 µM; CC50 at 72 h [4]: > 500 µM; IF (induction factor) ([5]; TA1535, +S9, 500 µM): 2.9; IF (induction factor) ([5]; TA1535, +S9, 5000 µM): 3.0; revertant His+ colonies, mean ± SD ([5]; TA1535, +S9, 5000 µM): 32 ± 4; IF (induction factor) ([5]; TA1535, −S9, 500 µM): 2.5; IF (induction factor) ([5]; TA1535, −S9, 5000 µM): 4.9; revertant His+ colonies, mean ± SD ([5]; TA1535, −S9, 5000 µM): 36 ± 5 |
| O=[N+]([O-])c1ncn(CC(O)c2ccc(F)cc2F)n1 (stereo not drawn) [Compound 8, 1-(2,4-Difluorophenyl)-2-(3-nitro-1H-1,2,4-triazol-1-yl)ethanol] | 1200 ± 0.01 µM | > 500 µM | 426 ± 66 µM | > 500 µM | > 500 µM | 1.0 | 11 ± 1 | 1.1 | 12 ± 4 | 1.3 | 14 ± 4 | 15 ± 5 | not mutagenic | 1.0 | 21 ± 2 | 1.0 | 26 ± 3 | 1.0 | 23 ± 6 | Cytotoxic | consumption rate by TcNTR, times higher than that of 9 ([2]; 25 µM): 3.4; Kobs Deriv./Kobs BZN 25 µM [2]: 2.6; consumption rate by TcNTR, times higher than that of 5 ([2]; 50 µM): 1.8; Kobs Deriv./Kobs BZN 50 µM [2]: 3.0; IF (induction factor) ([5]; TA1535, +S9, 500 µM): 1.4; IF (induction factor) ([5]; TA1535, +S9, 5000 µM): 1.4; revertant His+ colonies, mean ± SD ([5]; TA1535, +S9, 5000 µM): 15 ± 3 |
| O=[N+]([O-])c1nccn1CC(O)c1ccc(F)cc1F (stereo not drawn) [Compound 9, 1-(2,4-Difluorophenyl)-2-(2-nitro-1H-imidazol-1-yl)ethanol] | > 400 µM | > 500 µM | > 500 µM | > 500 µM | > 500 µM | 1.3 | 14 ± 2 | 2.1 | 23 ± 1 | 2.2 | 24 ± 1 | Cytotoxic | mutagenic | 1.8 | 14 ± 1 | 1.8 | 14 ± 4 | 2.8 | 22 ± 1 | 16 ± 3 | Kobs Deriv./Kobs BZN 25 µM [2]: 0.8; consumption rate by TcNTR, times higher than that of 6 ([2]; 50 µM): 4.9; Kobs Deriv./Kobs BZN 50 µM [2]: 1.2; CC50 at 72 h [3]: > 500 µM; CC50 at 72 h [4]: > 500 µM; IF (induction factor) ([5]; TA1535, −S9, 500 µM): 2.0; revertant His+ colonies, mean ± SD ([5]; TA1535, −S9, 5000 µM): Cytotoxic |
